Columns and labels:
HeLa cells = system: HeLa cells
Procedure: (§1) Three compounds (Compound I, Compound II and Compound III) were solubilized at 40 mM in DMSO and stored at −20° C. The test compounds were evaluated using a high test concentration of 50 μM. Serial half-logarithmic dilutions were performed for the in vitro cytotoxicity assays.
(§2) Cells listed in Table 70 were enumerated by Trypan Blue Dye exclusion method and seeded in the interior wells of a 96 well flat bottom microtiter plate at 100 μL/well. Proliferating cells were incubated overnight at 37° C./5% CO2 to allow the cells to adhere to the plates at approximately 70% confluency. Tissue culture medium was removed and replaced with 100 μL/well of fresh medium. One-hundred microliters (100 μL) of each compound at six concentrations was transferred to the 96-well plate containing the cells in triplicate. Table 70 lists the cell line, type of cell, source of cell stock, base tissue culture medium supplemented with 10% fetal bovine serum, 2 mM L-glutamine, 100 U/mL penicillin and 100 μg/mL streptomycin, and microtiter plate seeding density.
(§3) Following incubation at 37° C. in a 5% CO2 incubator for five days, the test plates were stained with the tetrazolium dye XTT (2,3-bis(2-methoxy-4-nitro-5-sulfopheny1)-5-[(phenylamino)carbonyl]-2H-tetrazolium hydroxide). XTT-tetrazolium was metabolized by the mitochondrial enzymes of metabolically active cells to a soluble formazan product. XTT solution was prepared daily as a stock of 1 mg/ml in RPM11640. Phenazine methosulfate (PMS) solution was prepared at 0.15 mg/ml in PBS and stored in the dark at −20° C. XTT/PMS stock was prepared immediately before use by adding 40 μL of PMS per ml of XTT solution. Fifty microliters of XTT/PMS were added to each well of the plate and the plate was reincubated for 4 hours at 37° C. Plates were sealed with adhesive plate sealers and shaken gently or inverted several times to mix the soluble formazan product and the plate was read spectrophotometrically at 450/650 nm with a Molecular Devices Vmax plate reader.
(§4) Microsoft Excel 2010 was used to analyze and graph the raw data. […] Raw data for cytotoxicity with a graphic representation of the data are provided in a printout summarizing the compound effect on cell viability.
(§5) Compounds I, II, and III were evaluated for cytotoxicity to proliferating Hs27, HeLa, C33A and HEK293 cells by measuring cell viability using XTI tetrazolium dye following five days in culture (Table 71).

Hs27 cells = system: Hs27 cells
Procedure: as §1, §2, §3, §4, §5

HEK293 cells = assay: In vitro cytotoxicity, XTT, five days
Procedure: as §1, §2, §3, §4, §5

C33A cells = assay: In vitro cytotoxicity, XTT, five days; conditions: read-out: C33A CC50, proliferating C33A cells
Procedure: as §1, §2, §3, §4, §5

[1] = Bulk (accelerated) stability, one week, HPLC and XRPD; conditions: initial chemical purity before storage; listed as Compound I free base Pattern 1
Procedure: Bulk stability: Accelerated stability experiments were conducted at 25° C./92% RH and 40° C./75% RH in an open container, 60° C. in a tight container for one week.
Samples were characterized by XRPD and HPLC and inspected for color change.
Accelerated stability experiments were conducted at 25° C./92% RH in an open container, at 40° C./75% RH in an open container, and at 60° C. in a tight container for one week.

[2] = Tablet stability study (storage, purity by HPLC); assay type: physicochemical; conditions: within one month at 40° C. and 75% RH
Procedure: Tablets were prepared using the excipients and excipient ratios shown in the first column of the following tables. The tablets were then stored under the conditions indicated and periodically sampled and tested for purity by HPLC.

[3] = Solubility in buffers, water and simulated vaginal fluid at 37° C.; conditions: 37° C.
Procedure: About 4 mg of Compound I Pattern 1 was added into 2 mL of buffer solution.
(§6) Solubility was tested in five media, pH 3.0 citrate buffer, pH 4.5 acetate buffer, pH 6.8 phosphate buffer, water, simulated vaginal fluid (pH 4.2) at 37° C. for 0.5 h and 2 h.
The salt amount used is equivalent to 10 mg anhydrous free base. […] The obtained clear solutions were analyzed by pH meter for pH, and solubility was determined by observation.
as §6

[4] = Hygroscopicity by DVS at 25° C.; assay type: physicochemical; conditions: for Desorption (%) Cycle 1 / Desorption (%) Cycle 2 / Sorption (%) Cycle 1 / Sorption (%) Cycle 2: DVS 25° C.
Procedure: Hygroscopicity was investigated by DVS at 25° C., using the following method: • Method: 40-0-95-0-40% RH, dm/dt=0.002

In the case of `CCOC(=O)[C@H](C)N[P@](=O)(COCCn1cnc2c(OC)nc(N)nc21)OCc1ccccc1` (single isomer, unassigned; isomer 1) [AB12280 Isomer 1], the CC50 (HeLa cells) is reported as 15.1 µM, the CC50 (Hs27 cells) is reported as 23.2 µM and the CC50 (HEK293 cells) is reported as less than 0.16 µM. For the same compound, the CC50 (C33A cells) was 0.2 µM.
Work on `CCOC(=O)[C@H](C)N[P@@](=O)(COCCn1cnc2c(OC)nc(N)nc21)OCc1ccccc1` (single isomer, unassigned; isomer 2) [AB12280 Isomer 2] yielded a CC50 (HeLa cells) of 16.9 µM, a CC50 (Hs27 cells) of 7.62 µM and a CC50 (HEK293 cells) of less than 0.16 µM. For the same compound, the CC50 (C33A cells) was less than 0.16 µM.
For `CCOC(=O)[C@H](C)NP(=O)(COCCn1cnc2c(OC)nc(N)nc21)OCc1ccccc1` (stereo partly drawn) [Compound I, ethyl(((2-(2-amino-6-methoxy-9H-purin-9-yl)ethoxy)methyl)(benzyloxy)-phosphoryl)-L-alaninate], the “HPLC purity, Initial” value [1] was 98.7%, the Degradation of tablets [2] was “substantially degrade” and the “pH at 2 hrs” value ([3]; solution in pH 3.0 100 mM citrate buffer) was “(2.98)”. The “pH at 2 hrs” value ([3]; solution in pH 4.5 50 mM acetate buffer) was “(4.50)”, the “pH at 2 hrs” value ([3]; solution in pH 6.8 50 mM phosphate buffer) was “(6.81)” and the “pH at 2 hrs” value ([3]; solution in simulated vaginal fluid (pH adjusted with 0.2N NaOH)) was “(5.53)”. The “pH at 2 hrs” value ([3]; solution in water) was “(7.55)”, the “Desorption (%) Cycle 1” value ([4]; 0% RH) was 0.00% and the “Desorption (%) Cycle 2” value ([4]; 0% RH) was 0.19%. The “Sorption (%) Cycle 1” value ([4]; 0% RH) was 0.00%, the “Sorption (%) Cycle 2” value ([4]; 0% RH) was 0.19% and the “Desorption (%) Cycle 1” value ([4]; 10% RH) was 0.11%. The “Desorption (%) Cycle 2” value ([4]; 10% RH) was 0.37%, the “Sorption (%) Cycle 1” value ([4]; 10% RH) was 0.08% and the “Sorption (%) Cycle 2” value ([4]; 10% RH) was 0.22%. For the same compound, the “Desorption (%) Cycle 1” value ([4]; 20% RH) was 0.23%, the “Desorption (%) Cycle 2” value ([4]; 20% RH) was 0.57% and the “Sorption (%) Cycle 1” value ([4]; 20% RH) was 0.17%. For the same compound, the “Sorption (%) Cycle 2” value ([4]; 20% RH) was 0.30%, the “Desorption (%) Cycle 1” value ([4]; 30% RH) was 0.47% and the “Desorption (%) Cycle 2” value ([4]; 30% RH) was 0.83%. The “Sorption (%) Cycle 1” value ([4]; 30% RH) was 0.28%, the “Sorption (%) Cycle 2” value ([4]; 30% RH) was 0.44% and the “Desorption (%) Cycle 1” value ([4]; 40% RH) was 0.60%. The “Desorption (%) Cycle 2” value ([4]; 40% RH) was 1.09%, the “Sorption (%) Cycle 1” value ([4]; 40% RH) was 0.41% and the “Sorption (%) Cycle 2” value ([4]; 40% RH) was 0.62%. For the same compound, the “Desorption (%) Cycle 2” value ([4]; 50% RH) was 1.48%, the “Sorption (%) Cycle 1” value ([4]; 50% RH) was 0.61% and the “Desorption (%) Cycle 2” value ([4]; 60% RH) was 1.96%. For the same compound, the “Sorption (%) Cycle 1” value ([4]; 60% RH) was 0.85%, the “Desorption (%) Cycle 2” value ([4]; 70% RH) was 2.78% and the “Sorption (%) Cycle 1” value ([4]; 70% RH) was 1.14%. The “Desorption (%) Cycle 2” value ([4]; 80% RH) was 4.33%, the “Sorption (%) Cycle 1” value ([4]; 80% RH) was 1.64% and the “Desorption (%) Cycle 2” value ([4]; 90% RH) was 9.10%. The “Sorption (%) Cycle 1” value ([4]; 90% RH) was 4.27%, the “Desorption (%) Cycle 2” value ([4]; 95% RH) was 14.32% and the “Sorption (%) Cycle 1” value ([4]; 95% RH) was 14.32%. The “XRPD after DVS test” value ([4]; after humidity cycle 40-0-95-0-40% RH, 25° C.) was “No form change,”.

— patent US20250295679A1, “Compositions and Dosage Forms for Treatment of HPV Infection and HPV-Induced Neoplasia” (priority 2022, published 2025)
